We go through 10 compounds from ChEMBL document CHEMBL1201862, “PubChem BioAssay data set” (2004).

Common to all, as to test: NCI tumour cell line growth inhibition, 48 h
The test system of assay [1] is DU-145.
For assay [2], the system named is EKVX.
Assay [3] concerns HCC 2998.
The test system of assay [4] is HCT-116.
Assay [5] deals with HT-29.
In assay [6] the test system is Hs-578T.
Assay [7] relates to M14.
Assay [8] deals with MDA-MB-435.
For assay [9], the system named is MDA-N.
Assay [10] concerns MOLT-4.
Assay [11] relates to NCI-H522.
Assay [12] deals with RPMI-8226.
For assay [13], the system named is SF-295.
Assay [14] relates to SF-539.
The subject of assay [15] is SK-MEL-28.
Assay [16] has as its system SK-OV-3.
The subject of assay [17] is SNB-19.
Assay [18] concerns SR.
For assay [19], the system named is UACC-62.
In assay [20] the test system is HOP-92.

Values joined by “and” are separate entries in the source; they are usually repeats but may differ in a detail not shown here. Equal entries are not always repeated.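 96-well plates; 48 h exposure; 5 concentrations. Endpoints by linear interpolation between flanking doses. Not reached: highest tested concentration assigned. GI50: concentration for 50% inhibition of growth.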 Active and inactive are the calls of the source. Cut-off read from the data, not from the text of the source: active = GI50 up to about 1.1 µM and inactive = higher.

With `Cc1cc(-c2cc(C)c(O)c(C(C)(C)C)c2)cc(C(C)(C)C)c1O`, the GI50 in assay [1] was 15.2 µM (inactive) and 11.8 µM (inactive); in assay [2], 14.8 µM (inactive) and 10.8 µM (inactive); in assay [3], 4.54 µM (inactive) and 4.59 µM (inactive); in [4], 6.21 µM (inactive) and 10.9 µM (inactive); in [5] it was 3.24 µM (inactive) and 3.82 µM (inactive); in [6] it was 12.8 µM (inactive) and 15.3 µM (inactive). Further, the GI50 is 10.6 µM (inactive) and 12.8 µM (inactive) in assay [7]; 11.5 µM (inactive) and 14.8 µM (inactive) in [8]; 14.7 µM (inactive) and 8.65 µM (inactive) in assay [9]; 5.79 µM (inactive) and 5.86 µM (inactive) in assay [10]; 10.5 µM (inactive) and 12.3 µM (inactive) in assay [11]; 18.9 µM (inactive) and 12.9 µM (inactive) in assay [12]. In addition, the GI50 in assay [13] was 9.82 µM (inactive) and 11.1 µM (inactive); in [14], 15 µM (inactive) and 18.5 µM (inactive); in assay [15], 16.7 µM (inactive) and 12 µM (inactive); in [16], 16.7 µM (inactive) and 14.2 µM (inactive); in assay [17] it was 14.6 µM (inactive) and 13.7 µM (inactive); in assay [18], 4.09 µM (inactive). The GI50 in assay [19] is 13.3 µM (inactive) and 13.6 µM (inactive).

For `O=C(NCc1ccccc1)c1cc2ccccc2o/c1=N\c1cccc(C(F)(F)F)c1`, the GI50 was > 100 µM (inactive) in assay [1]; > 100 µM (inactive) in [2]; 21.2 µM (inactive) in assay [3]; 55.6 µM (inactive) in assay [4]; 75.2 µM (inactive) in [20]; 35.9 µM (inactive) in assay [5]. Also, the GI50 is > 100 µM (inactive) in assay [6]; 87.3 µM (inactive) in [7]; 46 µM (inactive) in assay [8]; 54.8 µM (inactive) in assay [9]; 23.4 µM (inactive) in [10]; 39 µM (inactive) in [11]. Further, the GI50 in [12] is 30.3 µM (inactive); in [13] it was 51.3 µM (inactive); in assay [15], > 100 µM (inactive); in [16], > 100 µM (inactive); in assay [17] it was > 100 µM (inactive); in assay [18] it was 21.1 µM (inactive). In addition, the GI50 in assay [19] is 52.2 µM (inactive).

`CC1(CCC(=O)OC2CCCCC2)OCCO1`: the GI50 in assay [1], in assay [2], in assay [4], in assay [20], in assay [5] and in assay [6] was > 100 µM (inactive) in each case. In addition, the GI50 in assay [7], in assay [8], in assay [9], in [10], in [11] and in assay [12] was > 100 µM (inactive) each time. The GI50 in assay [13], in assay [14], in assay [15], in assay [16], in [17] and in assay [18] was > 100 µM (inactive) in each case. Also, the GI50 in [19] is > 100 µM (inactive).

In the case of `COC1=C(OC)C(=O)C(C/C=C/c2c(Cl)nc3sccn23)=C(C)C1=O`, the GI50 in assay [1] is 18.5 µM (inactive); in [2], 11.2 µM (inactive); in assay [3], 18.2 µM (inactive); in assay [4] it was 12.8 µM (inactive); in assay [5] it was 20.7 µM (inactive); in assay [6] it was 20.5 µM (inactive). The GI50 is 16.2 µM (inactive) in [7]; 9.16 µM (inactive) in [8]; 6.38 µM (inactive) in assay [9]; 1.69 µM (inactive) in [10]; 15.1 µM (inactive) in assay [11]; 4.35 µM (inactive) in assay [12]. Moreover, the GI50 was 2.1 µM (inactive) in assay [13]; 17.2 µM (inactive) in assay [14]; 17.9 µM (inactive) in [15]; 16.7 µM (inactive) in assay [16]; 14.1 µM (inactive) in [17]; 15 µM (inactive) in assay [18]. Moreover, in assay [19], the GI50 was 14.5 µM (inactive).

Regarding `C=C(C)CNCCN`, the GI50 in assay [1], in [2], in [4], in assay [20], in assay [5] and in assay [6] was > 100 µM (inactive) in each case. Further, the GI50 in [7], in assay [8], in assay [9], in assay [10], in assay [11] and in [13] was > 100 µM (inactive) in each case. The GI50 in assay [15], in [17], in [18] and in assay [19] was > 100 µM (inactive) throughout.

`CSc1nc(NC(C)C)c2c(n1)Sc1nc3ccccc3n1N=C2`: the GI50 in assay [1] was 12.7 µM (inactive); in assay [2], 21.1 µM (inactive); in [3] it was 3.65 µM (inactive); in assay [4], 7.01 µM (inactive); in [20], 11.1 µM (inactive); in assay [5], 21 µM (inactive). Also, the GI50 in assay [6] is 20 µM (inactive); in assay [7], 40.5 µM (inactive); in assay [8], 17.4 µM (inactive); in assay [9], 27 µM (inactive); in assay [10], 9.84 µM (inactive); in [11], 22.9 µM (inactive). Also, the GI50 in assay [12] was 0.335 µM (active); in assay [13], 6.03 µM (inactive); in assay [15] it was > 100 µM (inactive); in assay [16] it was 11.1 µM (inactive); in assay [17], 7.57 µM (inactive); in assay [18], 13.2 µM (inactive). Also, the GI50 in assay [19] is 6.62 µM (inactive).

Take `CC(C)(C)/C(O)=C\c1nc2cc(C(F)(F)F)ccc2[nH]c1=O`: the GI50 was > 100 µM (inactive) in assay [1]; > 100 µM (inactive) in assay [2]; > 100 µM (inactive) in assay [4]; > 100 µM (inactive) in assay [20]; 47.5 µM (inactive) in assay [5]; > 100 µM (inactive) in [6]. Also, the GI50 was > 100 µM (inactive) in assay [7]; > 100 µM (inactive) in assay [8]; > 100 µM (inactive) in assay [9]; > 10 µM (inactive) in assay [10]; > 100 µM (inactive) in assay [11]; > 100 µM (inactive) in [12]. For the same compound, the GI50 in assay [13] is > 100 µM (inactive); in assay [15], > 100 µM (inactive); in assay [16], > 100 µM (inactive); in [17], > 100 µM (inactive); in [18] it was > 10 µM (inactive); in assay [19] it was > 100 µM (inactive).

For `[N-]=[N+]=NC1=C(c2ccccn2)C(=O)c2cccc3cccc1c23`, the GI50 is 39.7 µM (inactive) in [1]; 57.5 µM (inactive) in assay [3]; 8.63 µM (inactive) in [4]; 29.9 µM (inactive) in assay [20]; 21.1 µM (inactive) in assay [5]; 27 µM (inactive) in [6]. Also, the GI50 in [7] was 23.9 µM (inactive); in assay [8] it was 36.5 µM (inactive); in assay [9] it was 53.8 µM (inactive); in assay [10], 1.77 µM (inactive); in assay [12] it was 34 µM (inactive); in [13] it was 42.5 µM (inactive). The GI50 in assay [14] is 32.8 µM (inactive); in assay [15] it was > 100 µM (inactive); in assay [16], 36.7 µM (inactive); in assay [17] it was 28.6 µM (inactive); in [18] it was 27.7 µM (inactive); in assay [19] it was 20 µM (inactive).

In the case of `CCOP(=O)(C[S+](C)[O-])O[C@@H]1C[C@H](C)CC[C@H]1C(C)C` (some centres undefined), the GI50 in [1] is 6.37 µM (inactive); in assay [2] it was 3.33 µM (inactive); in [4] it was 2.75 µM (inactive); in assay [20], 3.97 µM (inactive); in [6] it was 3.26 µM (inactive); in assay [7], 8.3 µM (inactive). The GI50 in assay [8] is 3.21 µM (inactive); in [9], 2.86 µM (inactive); in assay [10], 5.18 µM (inactive); in [11], 2.26 µM (inactive); in [12], 1.85 µM (inactive); in assay [13], 5.6 µM (inactive). Besides, the GI50 in assay [14] is 12.2 µM (inactive); in assay [15], > 100 µM (inactive); in [16], 6.95 µM (inactive); in assay [17], 12.2 µM (inactive); in assay [18], 3.07 µM (inactive); in assay [19], 2.17 µM (inactive).

Consider `NC(=S)Nc1ccc2c(c1)oc1ccccc12`, for which the GI50 is > 100 µM (inactive) in assay [1]; 10.4 µM (inactive) in assay [2]; > 100 µM (inactive) in [3]; > 100 µM (inactive) in [4]; > 100 µM (inactive) in [20]; > 100 µM (inactive) in assay [5]. Also, the GI50 in assay [6] is > 100 µM (inactive); in assay [7] it was > 100 µM (inactive); in assay [8], > 100 µM (inactive); in [9] it was > 100 µM (inactive); in assay [10] it was 7.1 µM (inactive); in assay [11], 7.57 µM (inactive). For the same compound, the GI50 is 11.7 µM (inactive) in assay [12]; > 100 µM (inactive) in assay [13]; > 100 µM (inactive) in assay [15]; > 100 µM (inactive) in [16]; > 100 µM (inactive) in assay [17]; > 100 µM (inactive) in assay [18]. Besides, the GI50 in assay [19] was > 100 µM (inactive).
